Measurements as given in patent US6203776A, “Method for identifying adrenergic receptor antagonists having good tolerability” (University Technology Corporation, priority 1998, dated 2001).

How the values were obtained:
[1] = tested on: human β1 or β2 receptors; test: Inverse agonist activity: inhibition of basal adenylyl cyclase activity (cAMP generation) in Sf9 membranes; assay type: biochemical; conditions: concentration 10×Ki for the β2 receptor
Experimental: Sf9 cells were transfected with a baculovirus expression system coding for human β1 or β2 receptors as described in Chidiac et al., Molec.
Adenylyl cyclase activity of Sf9 membranes was measured as described in Chidiac et al., Molec. […] The inhibition of basal cAMP generation in this system is a measure of inverse agonism.

[2] = tested on: β1, β2 and α1 adrenergic receptors; conditions: Yoshikawa et al., Eur. Heart J. 1996; cited from earlier work

SMILES: CC(C)(Cc1c[nH]c2ccccc12)NCC(O)COc1ccccc1C#N (centres unmarked) [bucindolol]
- rank order of inverse agonist activity (FIG. 1B) [1]: metoprolol>propranolol≥carvedilol>xamoterol>bucindolol
- adrenergic receptor subtype selectivity / rank order of potency [2]: nonselective for β1 and β2 adrenergic receptors
